The values that follow come from PMC5411959, “Potential Antiosteoporotic Natural Product Lead Compounds That Inhibit 17β-Hydroxysteroid Dehydrogenase Type 2” (Journal of Natural Products, 2017).

One data set concerns the target T1, human 17β-HSD2 (Homo sapiens, UniProt P37059).
T1 construct: expressed in transfected cells; host or cells: HEK-293 (ATCC), used as cell lysate
T1 sequence (P37059 1-387): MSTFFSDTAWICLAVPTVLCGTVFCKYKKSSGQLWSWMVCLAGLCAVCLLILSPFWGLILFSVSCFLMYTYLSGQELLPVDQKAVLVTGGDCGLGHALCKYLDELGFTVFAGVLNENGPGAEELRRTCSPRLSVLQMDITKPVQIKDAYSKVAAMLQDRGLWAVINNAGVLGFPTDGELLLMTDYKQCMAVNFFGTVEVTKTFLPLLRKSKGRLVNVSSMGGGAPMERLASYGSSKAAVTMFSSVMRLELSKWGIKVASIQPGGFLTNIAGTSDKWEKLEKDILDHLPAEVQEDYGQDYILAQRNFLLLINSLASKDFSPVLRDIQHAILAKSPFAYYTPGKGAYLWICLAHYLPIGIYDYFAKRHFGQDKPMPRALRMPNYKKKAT
Put plainly: 17β-HSD2 activity assay using lysates of HEK-293 cells expressing the recombinant human enzyme.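 For all read-outs here: conversion of tritium-labelled estradiol (200 nM, with 500 µM NAD+, 10 min) quantified after TLC separation by scintillation counting, at least three independent measurements.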 It counts as biochemical. Particulars: for IC50: HEK-293 lysates, 200 nM estradiol, 500 μM NAD+, 10 min 37 °C.

A short description of data set [1]: Compound stability in the test system (repeated and prolonged incubation, thawing-freezing cycles). It counts as physicochemical. Particulars: prolonged incubation, IC50 in weeks 1 and 3, thawing-freezing cycles. An excerpt:
extent these PAINS should be excluded from further research. Much more data is needed to finally provide directions for the use of PAINS filters4.
Besides these general aspects of PAINS, there are of course many arguments about curcumin itself as a hit. We are aware of the compound’s many reported bioactivities observed in in vitro studies and additionally of its very poor bioavailability. However, this study is a proof of concept study identifying many natural products inhibiting 17β-HSD2 when there is direct access to the binding site and we categorize curcumin as one of them. Why? A very recent analysis of curcumin data […]
Criterion 1. Look for evidence of compound stability in assay buffer/media, including when molecular models are invoked as supporting evidence of target engagement.
We observed no significant changes in inhibition in the experimental repetition also when the incubation time was prolonged. Actually, the assay duration is only 10 minutes and the compound has direct access to the binding site when using cell […]
Criterion 2. Look for the presence of detergent and thiol-scavenging reagents in biochemical assays to mitigate the impact of chemical aggregation and nonspecific thiol reactivity. Are/were any additional counterscreens performed to rule out these phenomena? […]
reactivity would alter the enzymes activities. Also this has not been observed.

A further data set has as its target T2, human 17β-HSD1 (Homo sapiens, UniProt P14061).
T2 construct: expressed in transfected cells; host or cells: HEK-293 (ATCC), used as cell lysate
T2 sequence (P14061 1-328): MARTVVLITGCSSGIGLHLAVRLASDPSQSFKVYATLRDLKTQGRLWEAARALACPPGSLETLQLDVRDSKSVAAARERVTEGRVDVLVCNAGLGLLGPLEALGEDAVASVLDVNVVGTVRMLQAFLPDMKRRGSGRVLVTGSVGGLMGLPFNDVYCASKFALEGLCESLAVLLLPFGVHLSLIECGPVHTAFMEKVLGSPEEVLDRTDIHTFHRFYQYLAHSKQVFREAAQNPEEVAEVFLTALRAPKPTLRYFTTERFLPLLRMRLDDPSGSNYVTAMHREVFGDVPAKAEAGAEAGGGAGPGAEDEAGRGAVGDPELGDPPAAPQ
Put plainly: 17β-HSD1 activity assay using lysates of HEK-293 cells expressing the recombinant human enzyme. It counts as biochemical. The note with it: for selectivity factor: 17β-HSD1 versus 17β-HSD2; for remaining activity at 20 µM: read-out: 17β-HSD1 remaining activity at 20 μM; for IC50: HEK-293 lysates, 200 nM estrone, 500 μM NADPH; for 17β-HSD1 inhibition (in words; n.i. = no inhibition): screened at 20 μM.

The next data set deals with 17β-HSD. Also noted: method as in PMID 11731908. The note with it: cited from earlier work.
A further data set concerns human ERα. Also noted: method as in PMID 25106881. The note with it: reported; read-out: ERα activation EC50; cited from earlier work.

Read-outs that look alike come from different tables or passages of the source.

On to `COc1cc(/C=C/C(=O)CC(=O)/C=C/c2ccc(O)c(OC)c2)ccc1O` [compound 3, curcumin], for which the “IC50 values with 0.1% Triton-X100 added, versus absence of detergent” value on human 17β-HSD2 (0.1% Triton-X100 in reaction mixture) is “comparable”. For the same compound, on human 17β-HSD2, the IC50 was determined as 1730 ± 200 nM. The “stability in the test system” value in data set [1] is listed as “seemed to be stable”. Further, on human 17β-HSD1, the selectivity factor result is reported as “∼12” and the remaining activity at 20 µM is 52.2 ± 7.1%.

For the compound `COc1cc(C[C@@H](C)[C@H](C)Cc2ccc(O)c(OC)c2)ccc1O` [compound 4, (−)-dihydroguaiaretic acid], the IC50 at human 17β-HSD2 was determined as 940 ± 20 nM; on human 17β-HSD1, 7700 ± 2200 nM. Moreover, the “effect on 17β-HSD activity in placenta microsomes” value in the data set on 17β-HSD was “no effects”. For the same compound, the selectivity factor on human 17β-HSD1 was found to be 8. For the same compound, on human 17β-HSD1 (17β-HSD2 over 17β-HSD1), the “selectivity over 17β-HSD1” value is no less than 8 fold.

Turning to `O=c1c(-c2ccc(O)cc2O)coc2cc(O)cc(O)c12` [compound 9, 2′-hydroxygenistein], the IC50 on human 17β-HSD2 came out at 2030 ± 370 nM. Moreover, the “classification (17β-HSD2 inhibition)” value on human 17β-HSD2 (flavonoid SAR model, Table 4) is reported as “active”. Further, the EC50 in the data set on human ERα is 6100 nM. Also, at human 17β-HSD1, the selectivity factor is reported as 0.5 and the IC50 was determined as 1090 ± 60 nM.

Take `O=C(Cc1ccc(O)c(Cl)c1)NCc1ccccc1` [compound 16, N-benzyl-2-(3-chloro-4-hydroxyphenyl)acetamide]: at human 17β-HSD2, the IC50 was found to be 3420 ± 740 nM. Besides, the “17β-HSD1 inhibition (in words; n.i. = no inhibition)” value at human 17β-HSD1 is “n.i”.

As for `O=C(Cc1ccc(O)c(Cl)c1)NCCc1c[nH]c2ccccc12` [compound 17, N-(2-(1H-indol-3-yl)ethyl)-2-(3-chloro-4-hydroxyphenyl)acetamide], the IC50 at human 17β-HSD2 was determined as 980 ± 240 nM. Besides, at human 17β-HSD1, the “17β-HSD1 inhibition (in words; n.i. = no inhibition)” value is given as “n.i”.

For `O=C(Cc1ccc(O)c(Cl)c1)NCc1ccccc1Cl` [compound 18, 2-(3-chloro-4-hydroxyphenyl)-N-(2-chlorobenzyl)acetamide], the IC50 at human 17β-HSD2 is 780 ± 160 nM. For the same compound, at human 17β-HSD1 (20 μM compound), the remaining activity at 20 µM turned out to be 54.8 ± 5.8%. On human 17β-HSD1, the selectivity factor entry is given as “∼25”.

In general, IC50 refers to the midpoint of a concentration-inhibition curve. Broadly, the remaining activity is the activity still measured, relative to the control. In general, EC50 refers to the concentration that produces a half-maximal response.
